Measurements from PubChem BioAssay (NCI).
Where “and” joins values, the source holds several entries; their conditions need not be identical. Equal entries are not always repeated.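 Here, GI50 denotes the concentration required for 50% inhibition of growth. The concentration for full growth arrest is given as TGI.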

Assays:
Assay in all cases: inhibition of tumour cell growth, NCI panel, 384-well format
MDA-MB-435 melanoma = tested on: MDA-MB-435 melanoma
MDA-MB-468 breast = tested on: MDA-MB-468 breast
OVCAR-8 ovarian = tested on: OVCAR-8 ovarian
NCI-H460 NSCLC = tested on: NCI-H460 NSCLC
SNB-19 CNS = tested on: SNB-19 CNS
A498 renal = tested on: A498 renal
U251 glioblastoma = tested on: U251 glioblastoma
MDA-MB-231 breast = tested on: MDA-MB-231 breast
M14 melanoma = tested on: M14 melanoma
NCI-H522 lung = tested on: NCI-H522 lung
SR leukemia = tested on: SR leukemia
HT29 colon = tested on: HT29 colon
IGROV1 ovarian = tested on: IGROV1 ovarian
UO-31 renal = tested on: UO-31 renal
MOLT-4 leukemia = tested on: MOLT-4 leukemia
SW-620 colon = tested on: SW-620 colon
SNB-75 CNS = tested on: SNB-75 CNS
HCT-116 colon = tested on: HCT-116 colon
HCC-2998 colon = tested on: HCC-2998 colon
SK-MEL-5 melanoma = tested on: SK-MEL-5 melanoma
K-562 leukemia = tested on: K-562 leukemia
RXF 393 renal = tested on: RXF 393 renal
MALME-3M melanoma = tested on: MALME-3M melanoma
PC-3 prostate = tested on: PC-3 prostate
UACC-62 melanoma = tested on: UACC-62 melanoma
A549 NSCLC = tested on: A549 NSCLC
DU-145 prostate = tested on: DU-145 prostate
BT-549 breast = tested on: BT-549 breast
SK-OV-3 ovarian = tested on: SK-OV-3 ovarian
MCF7 breast = tested on: MCF7 breast
CCRF-CEM leukemia = tested on: CCRF-CEM leukemia
T-47D breast = tested on: T-47D breast
CAKI-1 renal = tested on: CAKI-1 renal
NCI-H226 lung = tested on: NCI-H226 lung
OVCAR-3 ovarian = tested on: OVCAR-3 ovarian
KM12 colon = tested on: KM12 colon
HL-60(TB) leukemia = tested on: HL-60(TB) leukemia
HCT-15 colon = tested on: HCT-15 colon
SF-295 CNS = tested on: SF-295 CNS
OVCAR-4 ovarian = tested on: OVCAR-4 ovarian
LOX IMVI melanoma = tested on: LOX IMVI melanoma
SF-539 CNS = tested on: SF-539 CNS
SK-MEL-2 melanoma = tested on: SK-MEL-2 melanoma
SF-268 CNS = tested on: SF-268 CNS
NCI-H322M lung = tested on: NCI-H322M lung
ACHN renal = tested on: ACHN renal
RPMI-8226 leukemia = tested on: RPMI-8226 leukemia
TK-10 renal = tested on: TK-10 renal
OVCAR-5 ovarian = tested on: OVCAR-5 ovarian
COLO 205 colon = tested on: COLO 205 colon
NCI/ADR-RES ovarian = tested on: NCI/ADR-RES ovarian
786-0 renal = tested on: 786-0 renal
HS 578T breast = tested on: HS 578T breast
NCI-H23 lung = tested on: NCI-H23 lung
HOP-92 NSCLC = tested on: HOP-92 NSCLC
EKVX NSCLC = tested on: EKVX NSCLC
SN12C renal = tested on: SN12C renal
SK-MEL-28 melanoma = tested on: SK-MEL-28 melanoma
HOP-62 NSCLC = tested on: HOP-62 NSCLC

For `Nc1nc2[nH]cc(CCc3ccc(C(=O)N[C@@H](CCC(=O)O)C(=O)O)cc3)c2c(=O)[nH]1`, which TGI (MDA-MB-435 melanoma) is on record?
The TGI was 50000 nM and > 100000 nM.

What about the GI50 (MDA-MB-468 breast) of the same compound?
Its GI50 is 131 nM and 322 nM.

What about the GI50 (OVCAR-8 ovarian) of the same compound?
The GI50 was 44.7 nM and 50.1 nM.

And the TGI (OVCAR-8 ovarian)?
The TGI was 50000 nM and > 100000 nM.

And the GI50 (NCI-H460 NSCLC)?
The GI50 was 120 nM and 79.2 nM.

And the TGI (NCI-H460 NSCLC)?
Its TGI is 50000 nM and > 100000 nM.

What about the GI50 (SNB-19 CNS) of the same compound?
The GI50 was 1030 nM and 3660 nM.

What about the TGI (SNB-19 CNS) of the same compound?
Its TGI is 50000 nM and > 100000 nM.

What about the TGI (A498 renal) of the same compound?
The TGI was 50000 nM and > 100000 nM.

What about the GI50 (U251 glioblastoma) of the same compound?
Its GI50 is 243 nM and 249 nM.

And the GI50 (MDA-MB-231 breast)?
The GI50 was 234 nM and 374 nM.

And the TGI (MDA-MB-231 breast)?
Its TGI is 1120 nM and 1630 nM.

And the GI50 (M14 melanoma)?
Its GI50 is 105 nM and 56.1 nM.

What about the GI50 (NCI-H522 lung) of the same compound?
Its GI50 is 300 nM and 327 nM.

What about the GI50 (SR leukemia) of the same compound?
The GI50 was 33.1 nM and 38.8 nM.

And the GI50 (HT29 colon)?
The GI50 was 257 nM and 89 nM.

And the TGI (HT29 colon)?
Its TGI is 50000 nM and > 100000 nM.

And the GI50 (IGROV1 ovarian)?
The GI50 was > 50000 nM and 29800 nM.

What about the TGI (IGROV1 ovarian) of the same compound?
The TGI was over 100000 nM.

What about the GI50 (UO-31 renal) of the same compound?
The GI50 was 195 nM and 33.4 nM.

What about the GI50 (MOLT-4 leukemia) of the same compound?
Its GI50 is 12.1 nM and 19.2 nM.

And the TGI (MOLT-4 leukemia)?
The TGI was 23.6 nM and 33.8 nM.

What about the GI50 (SW-620 colon) of the same compound?
Its GI50 is 47.2 nM and 70.8 nM.

What about the TGI (SW-620 colon) of the same compound?
The TGI was 50000 nM and > 100000 nM.

What about the GI50 (SNB-75 CNS) of the same compound?
The GI50 was 78.2 nM and 121 nM.

What about the GI50 (HCT-116 colon) of the same compound?
Its GI50 is 38.7 nM and 61.8 nM.

What about the TGI (HCT-116 colon) of the same compound?
The TGI was 50000 nM and > 100000 nM.

And the GI50 (HCC-2998 colon)?
Its GI50 is 40.5 nM and 24 nM.

And the TGI (HCC-2998 colon)?
Its TGI is 50000 nM and > 100000 nM.

And the TGI (SK-MEL-5 melanoma)?
The TGI was over 100000 nM.

What about the GI50 (K-562 leukemia) of the same compound?
Its GI50 is 11.8 nM.

What about the TGI (K-562 leukemia) of the same compound?
The TGI was 24.8 nM.

And the GI50 (RXF 393 renal)?
Its GI50 is 24.8 nM.

What about the TGI (RXF 393 renal) of the same compound?
Its TGI is 58.3 nM.

What about the GI50 (MALME-3M melanoma) of the same compound?
The GI50 was 3120 nM and 728 nM.

And the TGI (MALME-3M melanoma)?
Its TGI is 50000 nM and > 100000 nM.

What about the GI50 (PC-3 prostate) of the same compound?
Its GI50 is 64.3 nM.

And the TGI (PC-3 prostate)?
The TGI was over 100000 nM.

What about the GI50 (UACC-62 melanoma) of the same compound?
The GI50 was 350 nM and 445 nM.

And the TGI (UACC-62 melanoma)?
The TGI was 50000 nM and > 100000 nM.

What about the GI50 (A549 NSCLC) of the same compound?
The GI50 was 355 nM and 294 nM.

And the TGI (A549 NSCLC)?
Its TGI is 50000 nM and > 100000 nM.

And the GI50 (DU-145 prostate)?
Its GI50 is 202 nM and 146 nM.

What about the TGI (DU-145 prostate) of the same compound?
Its TGI is 50000 nM and > 100000 nM.

What about the GI50 (BT-549 breast) of the same compound?
Its GI50 is 194 nM and 37.6 nM.

And the TGI (SK-OV-3 ovarian)?
The TGI was over 100000 nM.

What about the GI50 (MCF7 breast) of the same compound?
Its GI50 is 47.1 nM and 33.9 nM.

And the TGI (MCF7 breast)?
Its TGI is 50000 nM and > 100000 nM.

And the GI50 (CCRF-CEM leukemia)?
Its GI50 is 21.3 nM.

And the TGI (CCRF-CEM leukemia)?
The TGI was 73.3 nM.

What about the GI50 (T-47D breast) of the same compound?
Its GI50 is over 100000 nM.

What about the TGI (T-47D breast) of the same compound?
The TGI was over 100000 nM.

What about the GI50 (CAKI-1 renal) of the same compound?
Its GI50 is 193 nM and 179 nM.

What about the TGI (CAKI-1 renal) of the same compound?
Its TGI is 50000 nM and > 100000 nM.

What about the GI50 (NCI-H226 lung) of the same compound?
Its GI50 is 54 nM and 28.2 nM.

And the GI50 (OVCAR-3 ovarian)?
Its GI50 is 336 nM and 286 nM.

What about the TGI (OVCAR-3 ovarian) of the same compound?
The TGI was 50000 nM and > 100000 nM.

And the GI50 (KM12 colon)?
Its GI50 is over 100000 nM.

What about the TGI (KM12 colon) of the same compound?
The TGI was over 100000 nM.

What about the GI50 (HL-60(TB) leukemia) of the same compound?
Its GI50 is 14.8 nM and 22.6 nM.

What about the TGI (HL-60(TB) leukemia) of the same compound?
The TGI was 30.5 nM and 57.5 nM.

What about the GI50 (HCT-15 colon) of the same compound?
The GI50 was 1160 nM and 506 nM.

And the TGI (HCT-15 colon)?
Its TGI is 50000 nM and > 100000 nM.

What about the GI50 (SF-295 CNS) of the same compound?
Its GI50 is 31.6 nM and 75.6 nM.

What about the GI50 (OVCAR-4 ovarian) of the same compound?
Its GI50 is > 50000 nM and 6980 nM.

What about the TGI (OVCAR-4 ovarian) of the same compound?
The TGI was over 100000 nM.

And the GI50 (LOX IMVI melanoma)?
The GI50 was 88.3 nM.

And the TGI (LOX IMVI melanoma)?
The TGI was over 100000 nM.

What about the GI50 (SF-539 CNS) of the same compound?
Its GI50 is 72.1 nM and 41.9 nM.

And the GI50 (SK-MEL-2 melanoma)?
The GI50 was over 50000 nM.

What about the TGI (SK-MEL-2 melanoma) of the same compound?
Its TGI is over 50000 nM.

What about the GI50 (SF-268 CNS) of the same compound?
The GI50 was 45.8 nM and 33.4 nM.

What about the TGI (SF-268 CNS) of the same compound?
Its TGI is 264 nM and 96.2 nM.

What about the GI50 (NCI-H322M lung) of the same compound?
Its GI50 is over 100000 nM.

What about the TGI (NCI-H322M lung) of the same compound?
Its TGI is over 100000 nM.

What about the GI50 (ACHN renal) of the same compound?
The GI50 was 180 nM and 80.4 nM.

And the TGI (ACHN renal)?
Its TGI is 50000 nM and > 100000 nM.

What about the GI50 (RPMI-8226 leukemia) of the same compound?
Its GI50 is 17.2 nM and 26 nM.

What about the TGI (RPMI-8226 leukemia) of the same compound?
Its TGI is 40.2 nM and 52.8 nM.

And the GI50 (TK-10 renal)?
The GI50 was 245 nM and 760 nM.

And the TGI (TK-10 renal)?
The TGI was 50000 nM and > 100000 nM.

What about the GI50 (OVCAR-5 ovarian) of the same compound?
Its GI50 is 1310 nM and 4200 nM.

And the TGI (OVCAR-5 ovarian)?
The TGI was 50000 nM and > 100000 nM.

What about the GI50 (COLO 205 colon) of the same compound?
The GI50 was 37.9 nM and 30.6 nM.

What about the GI50 (NCI/ADR-RES ovarian) of the same compound?
The GI50 was 267 nM and 151 nM.

And the TGI (NCI/ADR-RES ovarian)?
The TGI was 50000 nM and > 100000 nM.

And the GI50 ([…]-0 renal)?
The GI50 was 33.5 nM and 30.5 nM.

And the TGI (786-0 renal)?
The TGI was 50000 nM and 8170 nM.

And the GI50 (HS 578T breast)?
The GI50 was 254 nM and 276 nM.

What about the TGI (HS 578T breast) of the same compound?
Its TGI is 50000 nM and > 100000 nM.

What about the GI50 (NCI-H23 lung) of the same compound?
The GI50 was > 50000 nM and 9320 nM.

What about the TGI (NCI-H23 lung) of the same compound?
Its TGI is over 100000 nM.

What about the GI50 (HOP-92 NSCLC) of the same compound?
Its GI50 is over 100000 nM.

What about the TGI (HOP-92 NSCLC) of the same compound?
The TGI was over 100000 nM.

And the TGI (EKVX NSCLC)?
Its TGI is over 100000 nM.

What about the GI50 (SN12C renal) of the same compound?
Its GI50 is 45.8 nM and 36.6 nM.

And the GI50 (SK-MEL-28 melanoma)?
The GI50 was 167 nM.

What about the TGI (SK-MEL-28 melanoma) of the same compound?
Its TGI is 5610 nM.

And the GI50 (HOP-62 NSCLC)?
Its GI50 is 307 nM and 181 nM.

And the TGI (HOP-62 NSCLC)?
The TGI was 50000 nM and > 100000 nM.
